Results taken from ChEMBL document CHEMBL4308841, “Synthesis, in vitro antiproliferative activity, and kinase inhibitory effects of pyrazole-containing diarylureas and diarylamides” (Eur J Med Chem, 2018).

What follows are molecules tested on SR (assay: Growth inhibition of human SR cells assessed as cell growth at 0.1 uM incubated for 48 hrs by sulforhodamine B assay relative to control). Details: read-out: Activity.
Type: functional
For `COc1cc(Cl)cc(-c2nn(-c3cccc(NC(=O)c4cccc(C(F)(F)F)c4)c3)cc2-c2ccncc2)c1`, the growth at 0.1 µM was 54%.

Each molecule was assayed on K562 (assay: Growth inhibition of human K562 cells assessed as cell growth at 100 uM incubated for 48 hrs by sulforhodamine B assay relative to control). Details: K562, 48 h, read-out: Activity.
Type: functional
`COc1cc(Cl)cc(-c2nn(-c3cccc(NC(=O)c4cccc(C(F)(F)F)c4)c3)cc2-c2ccncc2)c1` showed a growth at 100 µM of 32%.

What follows are molecules tested on COLO 205 (assay: Growth inhibition of human COLO205 cells assessed as cell growth at 0.1 uM incubated for 48 hrs by sulforhodamine B assay relative to control). Details: COLO 205, 48 h, read-out: Activity.
Type: functional
In the case of `COc1cc(Cl)cc(-c2nn(-c3cccc(NC(=O)c4cccc(C(F)(F)F)c4)c3)cc2-c2ccncc2)c1`, the growth at 0.1 µM is reported as 101%.

The molecules below were run on RPMI-8226 (assay: Growth inhibition of human RPMI8226 cells assessed as cell growth at 0.01 uM incubated for 48 hrs by sulforhodamine B assay relative to control). Details: RPMI-8226, 48 h, read-out: Activity.
Type: functional
`COc1cc(Cl)cc(-c2nn(-c3cccc(NC(=O)c4cccc(C(F)(F)F)c4)c3)cc2-c2ccncc2)c1` gave a growth at 0.01 µM of 101%.

What follows are molecules tested on ACHN (assay: Growth inhibition of human ACHN cells assessed as cell growth at 100 uM incubated for 48 hrs by sulforhodamine B assay relative to control). Details: read-out: Activity.
Type: functional
Work on `COc1cc(Cl)cc(-c2nn(-c3cccc(NC(=O)c4cccc(C(F)(F)F)c4)c3)cc2-c2ccncc2)c1` yielded a growth at 100 µM of 40%.

Each molecule was assayed on SW-620 (assay: Growth inhibition of human SW620 cells assessed as cell growth at 0.1 uM incubated for 48 hrs by sulforhodamine B assay relative to control). Details: SW-620, 48 h, read-out: Activity.
Type: functional
In the case of `COc1cc(Cl)cc(-c2nn(-c3cccc(NC(=O)c4cccc(C(F)(F)F)c4)c3)cc2-c2ccncc2)c1`, the growth at 0.1 µM is reported as 99%.

What follows are molecules tested on NCI-H226 (assay: Growth inhibition of human NCI-H226 cells assessed as cell growth at 1 uM incubated for 48 hrs by sulforhodamine B assay relative to control). Details: NCI-H226, 48 h, read-out: Activity.
Type: functional
Molecule `COc1cc(Cl)cc(-c2nn(-c3cccc(NC(=O)c4cccc(C(F)(F)F)c4)c3)cc2-c2ccncc2)c1` has a growth at 1 µM of 54%.

Each molecule was assayed on SK-OV-3 (assay: Growth inhibition of human SKOV3 cells incubated for 48 hrs by sulforhodamine B assay). Details: SK-OV-3, 48 h, read-out: GI50.
Type: functional, cell-based
For `COc1cc(Cl)cc(-c2nn(-c3cccc(NC(=O)c4cccc(C(F)(F)F)c4)c3)cc2-c2ccncc2)c1`, the GI50 was > 100 µM.

Same assay, conditions: SK-OV-3, 48 h, read-out: LC50 (the source's name)
In the case of `COc1cc(Cl)cc(-c2nn(-c3cccc(NC(=O)c4cccc(C(F)(F)F)c4)c3)cc2-c2ccncc2)c1`, the CC50 is reported as > 100 µM.

Same assay, conditions: SK-OV-3, 48 h, read-out: TGI
`COc1cc(Cl)cc(-c2nn(-c3cccc(NC(=O)c4cccc(C(F)(F)F)c4)c3)cc2-c2ccncc2)c1` was tested, and the TGI was > 100 µM.

Same assay, conditions: SK-OV-3, 48 h, read-out: pGI50 (converted)
In the case of `COc1cc(Cl)cc(-c2nn(-c3cccc(NC(=O)c4cccc(C(F)(F)F)c4)c3)cc2-c2ccncc2)c1`, the GI50 is reported as > 100 µM.

Same assay, conditions: SK-OV-3, 48 h, read-out: pLC50 (the source's name) (converted)
With `COc1cc(Cl)cc(-c2nn(-c3cccc(NC(=O)c4cccc(C(F)(F)F)c4)c3)cc2-c2ccncc2)c1` the CC50 was > 100 µM.

Same assay, conditions: SK-OV-3, 48 h, read-out: pTGI (converted)
`COc1cc(Cl)cc(-c2nn(-c3cccc(NC(=O)c4cccc(C(F)(F)F)c4)c3)cc2-c2ccncc2)c1` was tested, and the TGI was > 100 µM.

These molecules were tested on LOX IMVI (assay: Growth inhibition of human LOXIMVI cells assessed as cell growth at 100 uM incubated for 48 hrs by sulforhodamine B assay relative to control). Details: read-out: Activity.
Type: functional
`COc1cc(Cl)cc(-c2nn(-c3cccc(NC(=O)c4cccc(C(F)(F)F)c4)c3)cc2-c2ccncc2)c1` showed a growth at 100 µM of 41%.

What follows are molecules tested on MCF7 (assay: Growth inhibition of human MCF7 cells assessed as cell growth at 100 uM incubated for 48 hrs by sulforhodamine B assay relative to control). Details: MCF7, 48 h, read-out: Activity.
Type: functional
For `COc1cc(Cl)cc(-c2nn(-c3cccc(NC(=O)c4cccc(C(F)(F)F)c4)c3)cc2-c2ccncc2)c1`, the growth at 100 µM was 38%.

Each molecule was assayed on T47D (assay: Growth inhibition of human T47D cells assessed as cell growth at 1 uM incubated for 48 hrs by sulforhodamine B assay relative to control). Details: read-out: Activity.
Type: functional
Molecule `COc1cc(Cl)cc(-c2nn(-c3cccc(NC(=O)c4cccc(C(F)(F)F)c4)c3)cc2-c2ccncc2)c1` has a growth at 1 µM of 92%.

The molecules below were run on MDA-MB-468 (assay: Growth inhibition of human MDA-MB-468 cells incubated for 48 hrs by sulforhodamine B assay). Details: MDA-MB-468, 48 h.
Type: functional, cell-based
`COc1cc(Cl)cc(-c2nn(-c3cccc(NC(=O)c4cccc(C(F)(F)F)c4)c3)cc2-c2ccncc2)c1` gave an IC50 of 4.26 µM.

Same assay, conditions: MDA-MB-468, 48 h, read-out: GI50
With `COc1cc(Cl)cc(-c2nn(-c3cccc(NC(=O)c4cccc(C(F)(F)F)c4)c3)cc2-c2ccncc2)c1` the GI50 was 4.26 µM.

Same assay, conditions: MDA-MB-468, 48 h, read-out: LC50 (the source's name)
`COc1cc(Cl)cc(-c2nn(-c3cccc(NC(=O)c4cccc(C(F)(F)F)c4)c3)cc2-c2ccncc2)c1` was tested, and the CC50 was > 100 µM.

Same assay, conditions: MDA-MB-468, 48 h, read-out: TGI
For `COc1cc(Cl)cc(-c2nn(-c3cccc(NC(=O)c4cccc(C(F)(F)F)c4)c3)cc2-c2ccncc2)c1`, the TGI was > 100 µM.

Same assay, conditions: MDA-MB-468, 48 h, read-out: pGI50 (converted)
Molecule `COc1cc(Cl)cc(-c2nn(-c3cccc(NC(=O)c4cccc(C(F)(F)F)c4)c3)cc2-c2ccncc2)c1` has a GI50 of 4.27 µM.

Same assay, conditions: MDA-MB-468, 48 h, read-out: pLC50 (the source's name) (converted)
`COc1cc(Cl)cc(-c2nn(-c3cccc(NC(=O)c4cccc(C(F)(F)F)c4)c3)cc2-c2ccncc2)c1` was tested, and the CC50 was > 100 µM.

Same assay, conditions: MDA-MB-468, 48 h, read-out: pTGI (converted)
For `COc1cc(Cl)cc(-c2nn(-c3cccc(NC(=O)c4cccc(C(F)(F)F)c4)c3)cc2-c2ccncc2)c1`, the TGI was > 100 µM.

These molecules were tested on UO-31 (assay: Growth inhibition of human UO31 cells assessed as cell growth at 1 uM incubated for 48 hrs by sulforhodamine B assay relative to control). Details: UO-31, 48 h, read-out: Activity.
Type: functional
Molecule `COc1cc(Cl)cc(-c2nn(-c3cccc(NC(=O)c4cccc(C(F)(F)F)c4)c3)cc2-c2ccncc2)c1` has a growth at 1 µM of 54%.
